Each block holds one compound with its values, some of them ahead of it.
System: 817829-284-R-J1-PDC complex spheroids, viability
Assay: Anticancer human tumor 817829-284-R-J1-PDC patient-derived colon adenocarcinoma cell line growth inhibition [CLK]
Details: for IC50: curve of first compound; for viability, T/C: stronger effect = lower value
Description: A high-throughput screen of multi-cell type tumor spheroids was designed to identify active combinations of […] and targeted small molecules. Complex spheroids include a stromal component modeled by human endothelial cells (HUVEC) and fibroblasts modeled by human mesenchymal stem cells (MSCs). The concentration ranges selected for each drug and investigational agent were based upon clinically achievable concentrations if the clinical Cmax of the agent was known.
Compounds. The drugs and investigational agents: cirtuvivint (SM08502; NSC835563), CC-671 (NSC850746), vemurafenib (NSC761431), tapotoclax (NSC804041), sotorasib (NSC818433), adagrasib (NSC831453), MRTX-1133 (NSC836407), BAY2416964 (NSC825713), copanlisib (NSC816437), inavolisib (NSC800729), abemaciclib (NSC768073), osimertinib (NSC779217), entinostat (NSC756642), eltanexor (KPT-8602, NSC794443), venetoclax (NSC766270), ceralasertib (NSC777638), bortezomib (NSC756655), olaparib (NSC753686), talazoparib (NSC767125), alisertib (NSC759677), peposertib (NSC802822), gemcitabine (NSC613327), 5-fluorouracil (NSC19893), SN-38 (NSC673596), oxaliplatin (NSC266046), paclitaxel (NSC125973), and doxorubicin (NSC123127), were obtained from the National Cancer Institute (NCI) Developmental Therapeutics Program Chemical Repository. The FDA-approved anticancer drug set is available from the Developmental Therapeutics Program at https://dtp.cancer.gov/organization/dscb/obtaining/available plates.htm. […] The stock solutions were prepared in dimethyl sulfoxide (DMSO, Sigma-Aldrich, St. Louis, MO, cat. D2650), except for the platinum complexes which were prepared in saline (Quality Biological, Gaithersburg, MD, cat. 114-055-101), at 800-fold the tested concentration and stored at -70 degrees C prior to their use. All drugs and investigational agents were tested over a range starting from a high concentration at or near the clinical Cmax and decreasing in half-log increments. If the clinical Cmax for an agent had not been determined, the highest concentration tested was 10 microM.
Cell Culture. All cells were maintained in an incubator at 37 degrees C and 5% CO2 with 95% humidity. The PDC lines were cultured according to standard operating procedures established by the NCI PDMR. Briefly, all PDCs were thawed and cultured in Matrigel-coated flasks prepared with a working solution of 1X Ham's F-12 nutrient mix, without supplementation (Invitrogen, Waltham, MA, cat. 11765054), 100 U/mL penicillin-streptomycin (Invitrogen, cat. 15140122), and 2.5% Matrigel (Corning Inc., Corning, NY, cat. 354248) for the first three passages. The 947758-054-R-J2-PDC line was cultured in 6B/Colon 1A media, which includes advanced DMEM/F-12 (Thermo Fisher Scientific, cat. 12634028), 10 mM HEPES (Thermo Fisher Scientific, cat. 15630080), 1X GlutaMAX supplement (Thermo Fisher Scientific, cat. 35050061), 0.1 mg/mL primocin (InvivoGen, cat. ant-pm-2), 10% defined fetal bovine serum, heat inactivated (HyClone Laboratories Inc., cat. SH30070.03HI), 1.25 mM N-Acetyl-L-cysteine (Sigma-Aldrich, cat. A9165), 10 mM nicotinamide (Sigma-Aldrich, cat. N0636), 1X B-27 supplement (Thermo Fisher Scientific, cat. 17504044), 1X N-2 supplement (Thermo Fisher Scientific, cat. 17502048), and 10 microM Y-27632 dihydrochloride (Tocris Bioscience, cat. 1254). The 876862-298-R-J1-PDC was cultured in 6E media, which includes all 6B/Colon 1A media components plus 50% L-WRN conditioned media (ATCC, cat. CRL-3276), 50 ng/mL recombinant human EGF recombinant protein (hEGF; Thermo Fisher Scientific, cat. PHG0311), 10 ng/mL recombinant human fibroblast growth factor 10 (hGFG-10; PeproTech, cat. 100-26), 1 ng/mL recombinant human fibroblast growth factor 2 (hFGF-2; PeproTech, cat. 100-18B), and 1 µM prostaglandin E2 (PGE2; Tocris, cat. 2296). The 227483-062-R1-J1-PDC line was cultured in Panc media, containing all 6E components except hFGF-2, with the addition of 500 nM SB-431542 (Selleckchem, cat. S1067) and 10 nM gastrin (Tocris, cat. 3006). […]
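Also: spheroids exposed to the agents for seven days before readout.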

SMILES: CC(C)CC(NC(=O)C(Cc1ccccc1)NC(=O)c1cnccn1)B(O)O (centres undefined) + CN1CCN(c2cc(C(=O)Nc3cc4cc(-c5cnn(C)c5)ccc4cn3)ccn2)CC1
- IC50 (second compound 0.0316 µM): 1.09 nM
- IC50 (second compound 0.1 µM): < 0.949 nM
- IC50 (second compound 0.316 µM): < 0.949 nM
- IC50 (second compound 1 µM): < 0.949 nM
- IC50 (second compound 3.16 µM): < 0.949 nM
- IC50 (second compound 10 µM): < 0.949 nM
- viability, T/C (second compound 0.0316 µM, first compound 0.000949 µM): 56.9%
- viability, T/C (second compound 0.0316 µM, first compound 0.003 µM): 0.32%
- viability, T/C (second compound 0.0316 µM, first compound 0.00949 µM): 0.15%
- viability, T/C (second compound 0.0316 µM, first compound 0.03 µM): 0.1%
- viability, T/C (second compound 0.0316 µM, first compound 0.0949 µM): 0.08%
- viability, T/C (second compound 0.0316 µM, first compound 0.3 µM): 0.06%
- viability, T/C (second compound 0.1 µM, first compound 0.000949 µM): 8.37%
- viability, T/C (second compound 0.1 µM, first compound 0.003 µM): 0.1%
- viability, T/C (second compound 0.1 µM, first compound 0.00949 µM): 0.11%
- viability, T/C (second compound 0.1 µM, first compound 0.03 µM): 0.08%
- viability, T/C (second compound 0.1 µM, first compound 0.0949 µM): 0.06%
- viability, T/C (second compound 0.1 µM, first compound 0.3 µM): 0.06%
- viability, T/C (second compound 0.316 µM, first compound 0.000949 µM): 0.43%
- viability, T/C (second compound 0.316 µM, first compound 0.003 µM): 0.07%
- viability, T/C (second compound 0.316 µM, first compound 0.00949 µM): 0.09%
- viability, T/C (second compound 0.316 µM, first compound 0.03 µM): 0.04%
- viability, T/C (second compound 0.316 µM, first compound 0.0949 µM): 0.05%
- viability, T/C (second compound 0.316 µM, first compound 0.3 µM): 0.05%
- viability, T/C (second compound 1 µM, first compound 0.000949 µM): 0.08%
- viability, T/C (second compound 1 µM, first compound 0.003 µM): 0.06%
- viability, T/C (second compound 1 µM, first compound 0.00949 µM): 0.05%
- viability, T/C (second compound 1 µM, first compound 0.03 µM): 0.04%
- viability, T/C (second compound 1 µM, first compound 0.0949 µM): 0.05%
- viability, T/C (second compound 1 µM, first compound 0.3 µM): 0.05%
- viability, T/C (second compound 3.16 µM, first compound 0.000949 µM): 0.07%
- viability, T/C (second compound 3.16 µM, first compound 0.003 µM): 0.06%
- viability, T/C (second compound 3.16 µM, first compound 0.00949 µM): 0.06%
- viability, T/C (second compound 3.16 µM, first compound 0.03 µM): 0.04%
- viability, T/C (second compound 3.16 µM, first compound 0.0949 µM): 0.07%
- viability, T/C (second compound 3.16 µM, first compound 0.3 µM): 0.07%
- viability, T/C (second compound 10 µM, first compound 0.000949 µM): 0.03%
- viability, T/C (second compound 10 µM, first compound 0.003 µM): 0.06%
- viability, T/C (second compound 10 µM, first compound 0.00949 µM): 0.09%
- viability, T/C (second compound 10 µM, first compound 0.03 µM): 0.09%
- viability, T/C (second compound 10 µM, first compound 0.0949 µM): 0.15%
- viability, T/C (second compound 10 µM, first compound 0.3 µM): 0.11%

- IC50 (second compound 0.0316 µM): < 0.316 nM
- IC50 (second compound 0.1 µM): < 0.316 nM
- IC50 (second compound 0.316 µM): < 0.316 nM
- IC50 (second compound 1 µM): < 0.316 nM
- IC50 (second compound 3.16 µM): < 0.316 nM
- IC50 (second compound 10 µM): < 0.316 nM
SMILES: Cn1ncnc1[C@H]1c2n[nH]c(=O)c3cc(F)cc(c23)N[C@@H]1c1ccc(F)cc1 + CNC(=O)c1ccc(Nc2nc(OC3CCCC3)c3c(-c4ccc5nc(C)oc5c4)c[nH]c3n2)c(OC)c1
- viability, T/C (second compound 0.0316 µM, first compound 0.000316 µM): 26.6%
- viability, T/C (second compound 0.0316 µM, first compound 0.001 µM): 36.8%
- viability, T/C (second compound 0.0316 µM, first compound 0.00316 µM): 27.3%
- viability, T/C (second compound 0.0316 µM, first compound 0.01 µM): 31.1%
- viability, T/C (second compound 0.0316 µM, first compound 0.0316 µM): 25.3%
- viability, T/C (second compound 0.0316 µM, first compound 0.1 µM): 23.4%
- viability, T/C (second compound 0.1 µM, first compound 0.000316 µM): 20.5%
- viability, T/C (second compound 0.1 µM, first compound 0.001 µM): 21.1%
- viability, T/C (second compound 0.1 µM, first compound 0.00316 µM): 24.7%
- viability, T/C (second compound 0.1 µM, first compound 0.01 µM): 23.5%
- viability, T/C (second compound 0.1 µM, first compound 0.0316 µM): 22.3%
- viability, T/C (second compound 0.1 µM, first compound 0.1 µM): 18.2%
- viability, T/C (second compound 0.316 µM, first compound 0.000316 µM): 24.1%
- viability, T/C (second compound 0.316 µM, first compound 0.001 µM): 17.5%
- viability, T/C (second compound 0.316 µM, first compound 0.00316 µM): 20.2%
- viability, T/C (second compound 0.316 µM, first compound 0.01 µM): 21.6%
- viability, T/C (second compound 0.316 µM, first compound 0.0316 µM): 18.6%
- viability, T/C (second compound 0.316 µM, first compound 0.1 µM): 15.3%
- viability, T/C (second compound 1 µM, first compound 0.000316 µM): 18.1%
- viability, T/C (second compound 1 µM, first compound 0.001 µM): 20.1%
- viability, T/C (second compound 1 µM, first compound 0.00316 µM): 14.9%
- viability, T/C (second compound 1 µM, first compound 0.01 µM): 17.3%
- viability, T/C (second compound 1 µM, first compound 0.0316 µM): 22%
- viability, T/C (second compound 1 µM, first compound 0.1 µM): 12.1%
- viability, T/C (second compound 3.16 µM, first compound 0.000316 µM): 24.5%
- viability, T/C (second compound 3.16 µM, first compound 0.001 µM): 19.9%
- viability, T/C (second compound 3.16 µM, first compound 0.00316 µM): 27.6%
- viability, T/C (second compound 3.16 µM, first compound 0.01 µM): 14.3%
- viability, T/C (second compound 3.16 µM, first compound 0.0316 µM): 16.7%
- viability, T/C (second compound 3.16 µM, first compound 0.1 µM): 15.8%
- viability, T/C (second compound 10 µM, first compound 0.000316 µM): 16.8%
- viability, T/C (second compound 10 µM, first compound 0.001 µM): 13.4%
- viability, T/C (second compound 10 µM, first compound 0.00316 µM): 21.9%
- viability, T/C (second compound 10 µM, first compound 0.01 µM): 18.4%
- viability, T/C (second compound 10 µM, first compound 0.0316 µM): 16%
- viability, T/C (second compound 10 µM, first compound 0.1 µM): 18.1%

Reference: PubChem BioAssay AID2060599 (Molecular Pharmacology Branch, DTP, NCI, 2025)
